Values of other authors, collected in patent US9174839B2, “Methods and compositions for wound healing” (IMBED BIOSCIENCES, INC., priority 2008, dated 2015).

Assays:
[1] = incisional wounds
hepatocytes = conditions: in vitro
lymphocytes = conditions: in vitro
keratinocytes = conditions: in vitro monolayer cell cultures
fibroblasts = conditions: in vitro monolayer cell cultures

Row | Molecule | fibroblastic proliferation [1] | production of collagen [1] | cytotoxic effects on hepatocytes (hepatocytes) | cytotoxic effects on lymphocytes (lymphocytes) | toxicity to keratinocytes (keratinocytes) | toxicity to fibroblasts (fibroblasts)
1 | CC1=C(/C=C/C(C)=C/C=C/C(C)=C/C(=O)O)C(C)(C)CCC1 [tretinoin] | increased | diminished |  |  |  | 
2 | silver ions |  |  | cytotoxic effects | cytotoxic effects | cytotoxic effects | cytotoxic effects
